# Data: a melting point compilation (Tetko et al.; mined from patent text by program, amines drawn as free bases though some values may be those of a salt)
row,SMILES,melting point [°C]
1,COc1ccc(C2CCN(C(=O)N3CCC(Nc4ccc(CCNC[C@H](O)COc5ccc(O)cc5)cc4)CC3)CC2)cc1OC1CCCC1,92 to 95
2,O=C(NCC/C=C\CCCNC(=O)c1ccc(OC(F)(F)F)cc1)c1ccc(OC(F)(F)F)cc1,111 to 113
3,O=C1CSC(C(=O)O)Cc2cc3c(cc21)OCCO3 (stereo not given),208 to 209
4,N#CN1CCN(c2n[nH]c3ccccc23)CC1,120 to 122
5,CC(C)C[C@H](NS(=O)(=O)c1ccc(N(C)C)cc1)C(=O)N[C@H](C#N)CCc1ccccc1,46 to 48
6,COC(=O)c1cc(C(=O)OC)c(Br)cn1,102 to 104
7,C=CCN(CC=C)Cc1noc(-c2ncn3c2[C@@H]2CCN2C(=O)c2c-3cccc2C(F)(F)F)n1,147 to 150
8,Clc1ccc2c(c1)oc1cc(OCCCBr)ccc12,83 to 85
9,CCCCCC(C)C(C)c1cc(O)c2c(c1)OC(C)(C)C1=C2CCC1 (stereo not given),154 to 156
10,O=C(O)C(=O)Nc1ccc2c(=O)c3c(oc2c1)C(=Cc1ccc2c(c1)OCO2)CC3,300 to 305
11,COC(=CCl)C1(O)CCC2C3CCC4=CC(=O)CCC4(C)C3=CCC21C (stereo not given),197 to 199
12,Cc1oc2nc3c(c(NC(=O)C(C)C)c2c1C)CCCC3,245 to 246
13,Cc1oc(-c2ccccc2)nc1C=Cc1ccc(/C=C/C=C2/OC(=O)NC2=O)cc1,274 to 275
14,Nc1ccc(CCN2CCC(NC(=O)c3ccccc3)CC2)cc1,193 to 195
15,Cc1cncc2cc(S(N)(=O)=O)oc12,180 to 182
16,CC1(C)CCC(C)(C)c2cc(CC#Cc3ccc(C(=O)Nc4ccc(O)cc4)cc3)ccc21,159 to 160
17,COC(=O)CCNc1ccccc1CNC(=O)C1Cc2ccccc2N1S(=O)(=O)c1ccc(-c2ccc(F)cc2OC)cc1 (stereo not given),78 to 80
18,O=C1C2CCC(N1c1ccc(F)cc1)n1c(=O)n(-c3ccccc3)c(=O)n12 (stereo not given),167 to 168
19,OCCCCCCC(O)C(c1ccc(Cl)cc1Cl)n1ccnc1 (stereo not given),74 to 76
20,O=C(O)C(Cl)(Cl)CCCCCCCCCCCCSc1ccccc1,74
21,O=C(Nc1cnc2ccccc2c1)OC1CN2CCC1CC2 (stereo not given),135 to 137
22,Cn1nc(C(F)(F)C(F)(F)F)cc1O,183 to 188
23,O=C1N(Cc2ccc(N3CCOCC3)nc2)c2ccccc2C12COc1cc3c(cc12)OCCO3 (stereo not given),117 to 119
24,CCCSCCNC(=O)n1cc(F)c(=O)[nH]c1=O,112 to 114
25,CCC(=O)NC(=O)CCCCBr,94 to 97

row,SMILES,melting point [°C]
1,Cc1oc(-c2ccccc2)nc1COc1cccc(C=CC=C2OC(=O)NC2=O)c1,229 to 230
2,CC(C)(C)OC(=O)NNC1CCN(C(=O)OC(C)(C)C)CC1,112 to 115
3,O=C(NCCO[N+](=O)[O-])c1ccc(C2NC(C(=O)O)CS2)cc1 (stereo not given),128 to 130
4,CCOC(=O)Cc1c(C(=O)OCC)c(C)cn1CCO,133 to 135
5,CC(=O)OS(=O)(=O)c1ccc(C)cc1,56 to 60
6,CCCCOc1ccc(C=CC(=O)NCCN(O)C(N)=O)cc1,127 to 129
7,Cc1ccc(S(=O)(=O)Oc2ccc(S(=O)(=O)c3c(-c4ccccc4)noc3C(C)C)cc2)cc1,148 to 149
8,O=C(O)c1cccc2c1Cc1c-2[nH]c2ccc(Cl)cc12,> 300
9,Cc1c(Cl)cccc1N=Cc1ccc(Cl)cc1,79 to 81
10,Clc1nn2cnnc2c2c1C1CCC2CC1,137 to 140
11,CC(=O)OC1CC2(C)C(Sc3ccccc3)=CCC2C2CCC3=CC(=O)C=CC3(C)C12F (stereo not given),229 to 231
12,CCOc1ccc(N2CCN(c3c(C)c4c(c(OC)c3C)OC(C)C4)CC2)cc1 (stereo not given),117 to 119
13,Cc1cc([N+](=O)[O-])c(Cl)c([N+](=O)[O-])c1C(=O)O,189 to 192
14,O=S(=O)(C(=CNc1nccs1)S(=O)(=O)c1ccccc1)c1ccccc1,189 to 191
15,c1ccc2c(c1)CCC1(CCOCC1)NC2,76 to 78
16,CCCCCCCCCCCCCCCCCCOc1ccc(C(=O)O)c(OCCCOc2ccc(OCc3ccccc3)cc2)c1,102 to 104
17,COc1ccc(C(=O)Nc2c(Cl)cncc2Cl)c2c1oc1ccc(Cl)cc12,> 250
18,Cc1cc(N(C)C)cc(C)c1C1OC(C)(C)N=C1c1ccccc1 (stereo not given),105
19,O=S(=O)(Nc1ccc(Cl)nn1)c1ccccc1-c1ccccc1,196 to 198
20,Nc1ccc(N2CCN(Cc3ccccc3)CC2)cc1,137 to 138
21,O=C(O)C(Cc1ccccc1)Oc1ccc2cc(-c3cnc(-c4cn(Cc5ccccc5)c5ccccc45)o3)ccc2c1 (stereo not given),125 to 127
22,COc1cc(C=O)ccc1OCC#CI,121 to 127
23,COc1cc2c(cc1Cl)CCNC[C@H]2c1ccccc1,81 to 82
24,O=C1c2ccc(C#Cc3ccccc3)cc2C(=O)N1c1ccc2c(c1)C=C2,194 to 195

# Results, then the compound that gave them:
row,melting point [°C],SMILES
1,116 to 118,CC(C)n1cc(I)c2c(Cl)ncnc21
2,143,Cc1cccc(C)c1NC(=O)CN1CCN(CCC(c2ccc(F)cc2)c2ccc(F)cc2)C(C(N)=O)C1 (stereo not given)
3,194 to 195,O=C(NCc1ccccn1)Nc1cc(N2CC(CCc3ccccc3)OC2=O)ccn1 (stereo not given)
4,153 to 154,CCC(CC)n1nnc2c(Nc3ccc(C(C)=O)cc3Br)nc(C)nc21
5,196 to 198,CCNC(=O)N1CCN(c2ccccc2C(C)(C)C)CC1
6,139 to 140,COc1cc2c(cc1OC)/C(=N/OCc1ccc3nonc3c1)CCC2
7,185 to 187,CC(C)(C)c1cc(C=Nn2ccnc2N2CCOCC2)cc(C(C)(C)C)c1O
8,217 to 218,Nc1ccc2c(c1)c1ccccc1n2CCC(=O)NCCO
9,155 to 157,Cc1ccccc1-c1cc(N2CCN(C)CC2)ncc1N(C)C(=O)C(C)(C)c1cc(C(F)(F)F)cc(C(F)(F)F)c1
10,64 to 67,CC(=O)N(CC(C)O)c1c(C)cccc1C (stereo not given)
11,197 to 199,O=S(=O)(Nc1ncnc(Cl)c1Cc1ccc2ccccc2c1)c1ccc(Cl)cc1
12,89 to 90,Clc1ncnc(Cl)c1Oc1ccccc1
13,158 to 160,Cc1ccccc1Nc1nc(N(C)c2ccccc2)c2cccc(OCCO)c2n1
14,103 to 105,CCN(CC)CCNc1ccc(CO)c2sc3ccc(OC)cc3c(=O)c12
15,82 to 103,C#CCNC1=NS(=O)(=O)N=C1NCCSCc1nc[nH]c1C
16,172 to 173,COc1cc(N(C)C)c(Cl)cc1C(=O)NC1CCN(Cc2ccc(Cl)cc2)C1 (stereo not given)
17,140 to 142,O=C(O)CCc1cc2ccccc2s1
18,184 to 185,Oc1cc(C(F)(F)F)nc2cc(C(F)(F)F)ccc12
19,245 to 247,O=c1c2c(n(-c3ccccc3)c3ncccc13)OCC2
20,> 243,O=C(O)c1c2nc3ccccc3c-2[nH]c2ccc(F)cc12
21,74 to 77,CCOC(=O)C(C#N)C(=O)c1cccn1C (stereo not given)
22,232 to 235,Cc1ccc(-c2nn(-c3cccc(C(=O)O)c3)c(N)c2C(N)=O)cc1
23,46 to 55,CC(C)c1cc(Oc2ccc(Cl)cc2)nc(C(C)C)c1N=C=NC(C)(C)C
24,95 to 97,COc1cccc(CC(=O)O)c1OCCCc1cn(-c2cccc(C(F)(F)F)n2)nc1C(C)C
25,160,CC(=O)OCCn1nc(C)c(-c2ccc3c(c2)NC(=O)CO3)c1-c1ccc(F)cc1
26,235 to 236,CC(n1cnc2cc(-c3ccc(C4=NCCO4)cc3)sc2c1=O)C(O)(Cn1cncn1)c1ccc(F)cc1F (stereo not given)

row,melting point [°C],SMILES
1,235 to 238,CC(C)n1nc(-c2c(NCC(N)=O)nc(N)nc2-c2ccccc2)ccc1=O
2,95 to 97,CCOC(=O)C(=O)c1ccc(OCCCn2c(=O)c3ccccc3c3ccccc32)cc1
3,82 to 84,CCSc1cc(C)nc(SCC)c1NC(=O)CCCCCCCSc1nc2c(C)c(Cl)cc(C(C)C)c2o1
4,198 to 200,CC1(C)CCC(C)(C)c2cc(S(=O)Cc3ccc(C(=O)O)cc3)ccc21 (stereo not given)
5,261 to 263,CC(C)(C)c1ccc(C(=O)Nc2cn3cc(-c4ccsc4)ccc3n2)cc1
6,> 260,O=C1N=NC(=O)c2c1[nH]c1cccc(Br)c21
7,240 to 241,CC(C)(F)Cn1c(CO)nc2c(N)nc3cccnc3c21
8,196 to 198,COc1ccc([C@@H]2c3ccccc3C[C@@H]3CC(=O)NCCN32)cc1 (racemic)
9,223 to 225,CCOC(=O)C1CCCN(c2ccc([N+](=O)[O-])c(C=C3NC(=O)NC3=O)c2)C1 (stereo not given)
10,148 to 150,CC(=O)c1cnc2c(c1)oc(=O)n2CCc1ccncc1
11,134 to 135,CC(C)OCC1(C(C)(F)F)c2cc(C#N)ccc2Nc2ncccc21 (stereo not given)
12,303 to 305,O=C1CCC(N2Cc3cc(CNC(=O)c4ccccc4C(F)(F)F)ccc3C2=O)C(=O)N1 (stereo not given)
13,234 to 236,Cn1nc(C(=O)O)c(=O)n(-c2ccc(Cl)cc2)c1=O
14,226 to 227,Cc1nc2n(c1C)N=C(c1ccc(N)cc1)c1cc3c(cc1C2)OCO3
15,175,O=c1c2cnc3ccc(C(F)(F)F)cc3c2on1-c1ccccc1
16,112,Cc1cc(F)c(N)cc1N
17,188,O=c1ccc2ccccc2n1O
18,216 to 218,Cc1ccc(-c2ccnc3c(C(=O)c4cccs4)cnn23)cc1NC(=O)c1ccccc1
19,255 to 262,Cc1ccc(O)c2c1C(=O)C(=O)N2Cc1ccccc1
20,193 to 194,Cc1c(-c2ccc(C#N)cc2)c(C#N)c(C2CC2)n1Cc1cnc(Cl)c(CO)c1
21,111 to 116,"COc1cc(C)cc2c1C(N1CC[N+]([O-])(C(=O)Cc3ccncc3)CC1)c1ncc(Br)cc1CC2 (single isomer, unassigned; (-))"
22,191,Cc1cc2nnn(C(=O)N3CCOCC3)c2cc1C
23,153 to 154,COc1ccc2c(=O)c(-c3ccc(OCC4CO4)cc3)coc2c1 (stereo not given)
24,85 to 87,COc1ccc(C=CC2=NN(C(C)=O)C(C)Cc3cc(OC)c(OC)cc32)c(OC)c1 (stereo not given)
25,169 to 171,CC1=Cc2cc(C(=O)O)ccc2OC1(C)C
